A short description of assay [1]: Inhibition of Phoshoinositol 3 kinase. More on the design: species or system Homo sapiens.
Assay [2] deals with T1, DNA-dependent protein kinase catalytic subunit (Homo sapiens, UniProt P78527). Nature of the assay: Inhibition of DNA dependent protein kinase activity without hsp90 alpha protein.
Assay [3] deals with Heat shock protein HSP 90-alpha (Homo sapiens, UniProt P07900). Nature of the assay: Competitive binding towards Heat shock protein HSP 90-alpha.
Assay [4] is described as follows: Inhibition of Phoshoinositol 3 kinase from MCF-7 breast cancer cells. The assay is classed as cell-based, Homo sapiens. Conditions: mcf7.
The target of assay [5] is T1, DNA-dependent protein kinase catalytic subunit. Nature of the assay: Inhibition of DNA dependent protein kinase with hsp90 alpha protein.

T1 sequence (P78527 whole entry): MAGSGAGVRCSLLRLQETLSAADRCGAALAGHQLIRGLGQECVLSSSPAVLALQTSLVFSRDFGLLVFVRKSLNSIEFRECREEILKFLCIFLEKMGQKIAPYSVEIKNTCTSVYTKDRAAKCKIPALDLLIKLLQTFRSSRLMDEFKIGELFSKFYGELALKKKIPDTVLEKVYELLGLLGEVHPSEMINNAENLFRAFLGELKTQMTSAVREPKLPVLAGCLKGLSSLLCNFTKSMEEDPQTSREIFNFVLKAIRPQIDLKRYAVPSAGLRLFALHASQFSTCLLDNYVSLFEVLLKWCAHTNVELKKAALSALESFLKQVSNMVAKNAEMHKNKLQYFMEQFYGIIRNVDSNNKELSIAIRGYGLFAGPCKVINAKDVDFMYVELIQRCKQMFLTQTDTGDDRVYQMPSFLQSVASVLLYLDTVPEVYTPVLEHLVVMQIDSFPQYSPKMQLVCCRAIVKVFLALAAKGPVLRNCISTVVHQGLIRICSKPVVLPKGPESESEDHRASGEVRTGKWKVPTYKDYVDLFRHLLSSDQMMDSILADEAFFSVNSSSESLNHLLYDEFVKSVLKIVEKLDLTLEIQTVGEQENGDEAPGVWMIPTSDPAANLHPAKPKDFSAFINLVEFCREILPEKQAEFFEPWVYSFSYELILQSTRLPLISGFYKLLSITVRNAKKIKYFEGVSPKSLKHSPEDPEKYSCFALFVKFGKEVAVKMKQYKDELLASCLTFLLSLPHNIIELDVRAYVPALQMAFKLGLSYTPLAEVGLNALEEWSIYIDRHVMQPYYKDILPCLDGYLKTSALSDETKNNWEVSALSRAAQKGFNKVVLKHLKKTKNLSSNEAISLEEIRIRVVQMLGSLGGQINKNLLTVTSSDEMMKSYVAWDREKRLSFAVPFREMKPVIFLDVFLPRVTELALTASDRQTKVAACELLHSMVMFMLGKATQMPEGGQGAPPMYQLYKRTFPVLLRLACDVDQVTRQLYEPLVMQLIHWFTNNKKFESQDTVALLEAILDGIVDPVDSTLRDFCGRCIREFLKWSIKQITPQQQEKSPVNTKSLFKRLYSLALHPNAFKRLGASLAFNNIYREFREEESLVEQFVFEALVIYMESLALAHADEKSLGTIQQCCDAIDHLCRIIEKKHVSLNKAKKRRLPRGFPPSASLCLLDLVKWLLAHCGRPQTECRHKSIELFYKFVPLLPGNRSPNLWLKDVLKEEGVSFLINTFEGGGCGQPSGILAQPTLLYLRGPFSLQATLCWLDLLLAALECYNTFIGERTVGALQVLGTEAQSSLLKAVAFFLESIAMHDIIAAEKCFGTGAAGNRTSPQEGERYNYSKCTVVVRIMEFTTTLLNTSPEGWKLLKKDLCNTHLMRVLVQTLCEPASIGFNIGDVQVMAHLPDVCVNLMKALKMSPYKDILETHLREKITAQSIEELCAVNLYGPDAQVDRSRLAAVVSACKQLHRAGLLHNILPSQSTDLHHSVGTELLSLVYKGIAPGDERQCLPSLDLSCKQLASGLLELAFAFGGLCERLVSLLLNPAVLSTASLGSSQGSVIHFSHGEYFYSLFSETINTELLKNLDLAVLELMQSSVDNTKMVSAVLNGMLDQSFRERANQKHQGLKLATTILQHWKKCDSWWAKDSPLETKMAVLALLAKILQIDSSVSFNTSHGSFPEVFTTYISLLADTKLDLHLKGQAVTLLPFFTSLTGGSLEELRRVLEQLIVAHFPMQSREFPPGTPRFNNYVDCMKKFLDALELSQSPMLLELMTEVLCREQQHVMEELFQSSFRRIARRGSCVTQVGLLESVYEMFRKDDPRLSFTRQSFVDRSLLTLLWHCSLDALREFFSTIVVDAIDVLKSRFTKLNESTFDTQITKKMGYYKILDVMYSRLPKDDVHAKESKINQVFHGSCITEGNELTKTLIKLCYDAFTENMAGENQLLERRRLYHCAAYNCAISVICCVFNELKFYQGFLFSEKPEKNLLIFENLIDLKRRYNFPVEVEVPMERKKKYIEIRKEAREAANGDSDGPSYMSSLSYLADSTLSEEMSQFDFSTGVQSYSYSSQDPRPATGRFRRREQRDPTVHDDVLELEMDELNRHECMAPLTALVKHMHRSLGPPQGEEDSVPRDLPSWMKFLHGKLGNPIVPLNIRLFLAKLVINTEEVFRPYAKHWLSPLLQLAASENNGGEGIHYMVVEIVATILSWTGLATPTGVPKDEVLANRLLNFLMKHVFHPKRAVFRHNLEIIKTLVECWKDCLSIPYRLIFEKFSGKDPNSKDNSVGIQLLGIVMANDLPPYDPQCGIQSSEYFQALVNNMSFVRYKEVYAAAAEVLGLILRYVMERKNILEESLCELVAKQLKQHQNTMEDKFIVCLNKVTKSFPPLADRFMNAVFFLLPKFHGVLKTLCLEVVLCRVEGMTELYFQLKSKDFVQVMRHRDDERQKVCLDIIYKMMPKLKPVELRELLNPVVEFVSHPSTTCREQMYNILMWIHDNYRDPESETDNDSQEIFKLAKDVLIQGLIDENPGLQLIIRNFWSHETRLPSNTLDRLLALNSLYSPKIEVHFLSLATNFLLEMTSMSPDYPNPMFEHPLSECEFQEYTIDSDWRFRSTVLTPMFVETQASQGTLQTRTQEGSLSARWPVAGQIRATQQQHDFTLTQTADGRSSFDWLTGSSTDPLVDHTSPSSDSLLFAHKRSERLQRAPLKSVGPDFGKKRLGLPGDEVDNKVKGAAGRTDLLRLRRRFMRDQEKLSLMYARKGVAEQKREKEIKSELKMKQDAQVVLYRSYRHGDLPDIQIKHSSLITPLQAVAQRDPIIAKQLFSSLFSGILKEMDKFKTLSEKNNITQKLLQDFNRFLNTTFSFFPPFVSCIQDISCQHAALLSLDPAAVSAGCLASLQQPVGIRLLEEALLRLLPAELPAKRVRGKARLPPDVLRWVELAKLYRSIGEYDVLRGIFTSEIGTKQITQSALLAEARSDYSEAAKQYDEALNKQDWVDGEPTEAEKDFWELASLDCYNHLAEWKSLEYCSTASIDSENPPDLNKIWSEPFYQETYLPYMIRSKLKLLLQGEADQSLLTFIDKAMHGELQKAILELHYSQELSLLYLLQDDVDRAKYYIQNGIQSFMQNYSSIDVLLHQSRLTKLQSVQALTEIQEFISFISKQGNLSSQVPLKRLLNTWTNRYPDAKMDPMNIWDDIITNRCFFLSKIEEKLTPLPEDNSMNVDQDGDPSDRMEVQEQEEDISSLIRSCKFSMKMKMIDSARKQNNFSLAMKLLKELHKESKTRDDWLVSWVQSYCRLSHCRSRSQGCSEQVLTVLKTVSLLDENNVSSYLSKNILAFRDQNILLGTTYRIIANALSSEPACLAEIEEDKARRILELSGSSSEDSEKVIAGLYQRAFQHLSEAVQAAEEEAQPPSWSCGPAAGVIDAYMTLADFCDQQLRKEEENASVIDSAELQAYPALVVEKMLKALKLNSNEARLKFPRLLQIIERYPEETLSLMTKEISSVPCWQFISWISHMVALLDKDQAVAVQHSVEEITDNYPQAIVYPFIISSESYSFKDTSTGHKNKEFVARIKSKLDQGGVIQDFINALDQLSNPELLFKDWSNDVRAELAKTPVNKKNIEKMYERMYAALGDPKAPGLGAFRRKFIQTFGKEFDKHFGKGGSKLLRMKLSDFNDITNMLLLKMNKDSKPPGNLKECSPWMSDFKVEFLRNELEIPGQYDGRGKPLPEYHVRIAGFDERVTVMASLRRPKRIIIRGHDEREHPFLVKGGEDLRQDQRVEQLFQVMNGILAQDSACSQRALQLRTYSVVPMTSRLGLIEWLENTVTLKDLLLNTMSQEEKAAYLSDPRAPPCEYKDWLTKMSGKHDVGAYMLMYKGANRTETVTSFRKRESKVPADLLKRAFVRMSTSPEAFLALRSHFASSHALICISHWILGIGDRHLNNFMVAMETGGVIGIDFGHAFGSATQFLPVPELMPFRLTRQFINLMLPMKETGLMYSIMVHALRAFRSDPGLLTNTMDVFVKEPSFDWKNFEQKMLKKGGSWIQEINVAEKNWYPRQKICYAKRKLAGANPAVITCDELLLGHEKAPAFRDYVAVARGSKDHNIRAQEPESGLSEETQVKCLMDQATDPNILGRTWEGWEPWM

With `O=c1cc(N2CCOCC2)oc2c1ccc1ccccc12`, the half-maximal inhibitory concentration (IC50) (commonly the point on the concentration scale where inhibition reaches its midpoint) in assay [1] stood at 6 µM.
Regarding `CO[C@H]1/C=C\C=C(/C)C(=O)NC2=CC(=O)C(NCCCCCCCOc3ccc4c(=O)cc(N5CCOCC5)oc4c3C)=C(C[C@@H](C)C[C@H](OC)[C@H](O)[C@@H](C)/C=C(\C)[C@@H]1OC(N)=O)C2=O`, the IC50 in assay [2] was 3.7 µM; in assay [4], 5 µM. In addition, it took 46 µM to reach a half-maximal effect in assay [3] (EC50).
`CO[C@H]1/C=C\C=C(/C)C(=O)NC2=CC(=O)C(NCCCCCOc3ccc4c(=O)cc(N5CCOCC5)oc4c3)=C(C[C@@H](C)C[C@H](OC)[C@H](O)[C@@H](C)/C=C(\C)[C@@H]1OC(N)=O)C2=O`: the IC50 was found to be 10 µM in assay [2], 5 µM in assay [5] and 310 µM in assay [4]. Moreover, the EC50 – broadly, the concentration that produces a half-maximal response – in assay [3] was found to be 2.5 µM.
With `O=c1cc(N2CCOCC2)oc2ccccc12`, the IC50 in assay [2] was determined as 4.3 µM; in assay [4] it was 14 µM. The EC50 in assay [3] is above 50 µM.
For `CO[C@H]1/C=C\C=C(/C)C(=O)NC2=CC(=O)C(NCCOCCOc3ccc4c(=O)cc(N5CCOCC5)oc4c3C)=C(C[C@@H](C)C[C@H](OC)[C@H](O)[C@@H](C)/C=C(\C)[C@@H]1OC(N)=O)C2=O`, in that order: 12.2 µM, 70 µM and above 50 µM.
With `CO[C@H]1/C=C\C=C(/C)C(=O)NC2=CC(=O)C(NCCCOc3ccc4c(=O)cc(N5CCOCC5)oc4c3)=C(C[C@@H](C)C[C@H](OC)[C@H](O)[C@@H](C)/C=C(\C)[C@@H]1OC(N)=O)C2=O`, the figures for the IC50 in assay [2] and in assay [4] were 28 µM and above 500 µM, respectively. This molecule also came in with an EC50 in assay [3] of 26 µM.
The corresponding values for `CO[C@H]1/C=C\C=C(/C)C(=O)NC2=CC(=O)C(NCCCCCCOc3ccc4c(=O)cc(N5CCOCC5)oc4c3)=C(C[C@@H](C)C[C@H](OC)[C@H](O)[C@@H](C)/C=C(\C)[C@@H]1OC(N)=O)C2=O` are 6.1 µM, above 500 µM and 4 µM.
The corresponding values for `CO[C@H]1/C=C\C=C(/C)C(=O)NC2=CC(=O)C(NCCCC#Cc3cccc4c(=O)cc(N5CCOCC5)oc34)=C(C[C@@H](C)C[C@H](OC)[C@H](O)[C@@H](C)/C=C(\C)[C@@H]1OC(N)=O)C2=O` are 13.4 µM, 13.5 µM and above 50 µM.
The corresponding values for `CO[C@H]1/C=C\C=C(/C)C(=O)NC2=CC(=O)C(NCCCCCCCCOc3ccc4c(=O)cc(N5CCOCC5)oc4c3C)=C(C[C@@H](C)C[C@H](OC)[C@H](O)[C@@H](C)/C=C(\C)[C@@H]1OC(N)=O)C2=O` are 1.75 µM, 28 µM and 28 µM.
With `CO[C@H]1/C=C\C=C(/C)C(=O)NC2=CC(=O)C(NCCCCOc3ccc4c(=O)cc(N5CCOCC5)oc4c3)=C(C[C@@H](C)C[C@H](OC)[C@H](O)[C@@H](C)/C=C(\C)[C@@H]1OC(N)=O)C2=O`, the IC50 in assay [2] worked out at 13.9 µM; in assay [4], 200 µM. For the same molecule, it took 10 µM to reach a half-maximal effect in assay [3] (EC50).
For the molecule `CO[C@H]1/C=C\C=C(/C)C(=O)NC2=CC(=O)C(NCCOCCOc3ccc4c(=O)cc(N5CCOCC5)oc4c3)=C(C[C@@H](C)C[C@H](OC)[C@H](O)[C@@H](C)/C=C(\C)[C@@H]1OC(N)=O)C2=O`, the IC50 in assay [2] was 33 µM; in assay [4], 85 µM. The molecule also gave an EC50 in assay [3] of 16 µM.
As for `CO[C@H]1/C=C\C=C(/C)C(=O)NC2=CC(=O)C(NCC#Cc3cccc4c(=O)cc(N5CCOCC5)oc34)=C(C[C@@H](C)C[C@H](OC)[C@H](O)[C@@H](C)/C=C(\C)[C@@H]1OC(N)=O)C2=O`, the IC50 in assay [2] and in assay [4] was 3 µM throughout. Besides, the EC50 in assay [3] was 7 µM.
On to `C=CCNC1=C2C[C@@H](C)C[C@H](OC)[C@H](O)[C@@H](C)/C=C(\C)[C@H](OC(N)=O)[C@@H](OC)/C=C\C=C(/C)C(=O)NC(=CC1=O)C2=O` [TANESPIMYCIN], for which the IC50 in assay [2] is above 40 µM; in assay [4] it was above 500 µM.

The values above are taken from ChEMBL document CHEMBL1134011, “LY294002-geldanamycin heterodimers as selective inhibitors of the PI3K and PI3K-related family” (Bioorg Med Chem Lett, 2001).
